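Exposure lasted 48 hours, with cells grown in 96-well plates and compounds tested at five concentrations. At the TGI there is no net growth.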

For 22 molecules, TGI results are on record in PubChem BioAssay (NCI).

Some test systems named below: UACC-62 melanoma; SW-620 colon; HOP-92 NSCLC; 786-0 renal; U251 CNS; COLO 205 colon; HCT-116 colon; M14 melanoma; UO-31 renal.
Common to all, as to test: DTP human tumour cell line panel, 48 h

What is called TGI is the concentration giving total growth inhibition. `COC(=O)c1sc(=O)sc1SCc1cccc(CSc2sc(=O)sc2C(=O)OC)c1`: the TGI in the assay on UACC-62 melanoma is greater than 100 µM; in the assay with SW-620 colon it was greater than 100 µM; with HOP-92 NSCLC it was 95.6 µM; with 786-0 renal it was 31.4 µM; with U251 CNS, 34.3 µM; in the assay with COLO 205 colon, greater than 100 µM. The TGI in the assay with HCT-116 colon, in the assay on M14 melanoma and in the assay with UO-31 renal was greater than 100 µM throughout.
Regarding `COC1CC(C)(NC(=O)C(F)(F)F)C2OC(c3ccccc3)OCC2O1` (stereo not drawn), the total growth inhibition concentration (TGI) with UACC-62 melanoma, in the assay with SW-620 colon, in the assay on HOP-92 NSCLC, in the assay with 786-0 renal, in the assay with U251 CNS and with COLO 205 colon was greater than 100 µM throughout. For the same molecule, the TGI in the assay on HCT-116 colon, in the assay on M14 melanoma and in the assay with UO-31 renal was greater than 100 µM each time.
Turning to `CC(C)(CO[C@H]1C[C@H]2CC[C@@]1(C)C2(C)C)[N+](=O)[O-]`, the TGI in the assay with UACC-62 melanoma worked out at 41.7 µM; with SW-620 colon it was 59.8 µM; with HOP-92 NSCLC it was 43.4 µM; with 786-0 renal it was 27.9 µM; in the assay with U251 CNS, 31.5 µM; in the assay with COLO 205 colon, 31.4 µM. Moreover, the results for the TGI with HCT-116 colon, with M14 melanoma and in the assay with UO-31 renal were 29.1 µM, 27.1 µM and 25.8 µM, respectively.
Take `O=C1NC(O)c2cc3ccccc3cc2O1` (stereo not drawn): the TGI with UACC-62 melanoma was 48.5 µM; with SW-620 colon it was greater than 100 µM; in the assay with HOP-92 NSCLC, 90.7 µM; in the assay on 786-0 renal it was greater than 100 µM; in the assay on U251 CNS it was 87.3 µM; in the assay on COLO 205 colon, greater than 100 µM. In addition, the concentration for total growth inhibition (TGI) with HCT-116 colon was 51.1 µM; with M14 melanoma, greater than 100 µM; with UO-31 renal, greater than 100 µM.
Regarding `O=C1[C@@H]2[C@@H](CN3CN(c4ccccc4)N=C(c4ccccc4)[C@@]23c2ccccc2)C(=O)N1c1ccccc1`, the TGI is 20.1 µM in the assay with UACC-62 melanoma; 3.84 µM with SW-620 colon; 3.86 µM in the assay with HOP-92 NSCLC; 5.56 µM with 786-0 renal; greater than 65.6 µM with U251 CNS; 3.83 µM in the assay with COLO 205 colon. The TGI in the assay with HCT-116 colon was determined as 31.8 µM; with M14 melanoma, 9.73 µM; in the assay with UO-31 renal, 3.29 µM.
As for `O=C(O)C(Cc1ccccc1)NCc1c(O)ccc2c(-c3ccccc3)cc(=O)oc12` (stereo not drawn), the TGI in the assay with UACC-62 melanoma, with SW-620 colon, in the assay on HOP-92 NSCLC, in the assay on 786-0 renal, in the assay with U251 CNS and with COLO 205 colon was greater than 100 µM throughout. In addition, the TGI in the assay with HCT-116 colon, in the assay on M14 melanoma and in the assay with UO-31 renal was greater than 100 µM each time.
Turning to `COC(=O)[C@]1(c2cc3ccccc3n2S(=O)(=O)c2ccccc2)CC2CN(C(=O)OCc3ccccc3)C1C1OC(C)(C)OC21` (stereo partly drawn), the concentration for total growth inhibition (TGI) in the assay with UACC-62 melanoma, in the assay on SW-620 colon, with HOP-92 NSCLC, in the assay on 786-0 renal, with U251 CNS and with COLO 205 colon was greater than 100 µM in each case. For the same molecule, the TGI in the assay with HCT-116 colon, in the assay on M14 melanoma and in the assay on UO-31 renal was greater than 100 µM each time.
Consider `C[C@]12CC[C@H]3[C@@H](CC=C4C[C@@H](N5CCCC5)CC[C@@]43C)[C@@H]1C[C@H](N1CCCCC1)[C@@H]2O`, for which the TGI in the assay with UACC-62 melanoma, with SW-620 colon, in the assay with HOP-92 NSCLC, in the assay with 786-0 renal, in the assay on U251 CNS and in the assay on COLO 205 colon was greater than 100 µM throughout. Further, the TGI with HCT-116 colon is greater than 100 µM; with M14 melanoma, 40.4 µM; in the assay with UO-31 renal, greater than 100 µM.
For the molecule `CC(=O)CC1(CBr)Nc2ccc([N+](=O)[O-])cc2NC1=O` (stereo not drawn), the TGI in the assay with UACC-62 melanoma, in the assay on SW-620 colon, in the assay on HOP-92 NSCLC, in the assay with 786-0 renal, with U251 CNS and in the assay on COLO 205 colon was greater than 100 µM each time. Also, the TGI with HCT-116 colon, with M14 melanoma and in the assay on UO-31 renal was greater than 100 µM throughout.
On to `C/C(=N\Nc1nc2ccccc2s1)c1ccncn1`, for which the TGI in the assay with UACC-62 melanoma was greater than 26.5 µM; in the assay on SW-620 colon it was greater than 100 µM; in the assay on HOP-92 NSCLC, greater than 30.1 µM; in the assay on 786-0 renal, greater than 72.4 µM; in the assay with U251 CNS, greater than 100 µM; in the assay on COLO 205 colon, 11.1 µM. Besides, the TGI turned out to be 16.3 µM in the assay with HCT-116 colon, 14.4 µM in the assay with M14 melanoma and 10.2 µM with UO-31 renal.
Regarding `Cn1c(=O)c2c(nc3[nH]c(=O)c(Br)cn32)n(C)c1=O`, the TGI in the assay on UACC-62 melanoma, with SW-620 colon, in the assay with HOP-92 NSCLC, in the assay on 786-0 renal, with U251 CNS and in the assay on COLO 205 colon was greater than 100 µM throughout. Moreover, the TGI with HCT-116 colon, in the assay on M14 melanoma and with UO-31 renal was greater than 100 µM throughout.
Consider `C=C1c2nc3ccccc3n2C=C(c2ccc(C)cc2)N1c1ccc(OC)cc1`, for which the TGI with UACC-62 melanoma, in the assay on SW-620 colon, with HOP-92 NSCLC, with 786-0 renal, in the assay on U251 CNS and in the assay with COLO 205 colon was greater than 100 µM in each case. Moreover, the TGI with HCT-116 colon, with M14 melanoma and in the assay with UO-31 renal was greater than 100 µM each time.
Regarding `O=c1[nH]c(=O)n(COC(CO)CO)cc1-c1ccccc1`, the TGI in the assay with UACC-62 melanoma, in the assay on SW-620 colon, in the assay on HOP-92 NSCLC, in the assay on 786-0 renal, in the assay on U251 CNS and in the assay on COLO 205 colon was greater than 100 µM each time. Moreover, the TGI in the assay on HCT-116 colon, with M14 melanoma and with UO-31 renal was greater than 100 µM each time.
Turning to `COc1cc(CCNC2=CC(=O)c3nc[nH]c3C2=O)ccc1O`, the TGI in the assay on UACC-62 melanoma was 36.8 µM; with SW-620 colon, 58.6 µM; with HOP-92 NSCLC, 73.3 µM; in the assay on 786-0 renal, greater than 100 µM; with U251 CNS, 63.3 µM; with COLO 205 colon it was 56.5 µM. Also, the TGI with HCT-116 colon is 48 µM; in the assay with M14 melanoma, 33.5 µM; in the assay with UO-31 renal, greater than 100 µM.
Take `O=C(CNc1ccccc1C(=O)O)Nn1cnc2ccc(S(=O)(=O)Nc3ccccc3C(=O)O)cc2c1=O`: the TGI in the assay with UACC-62 melanoma, with SW-620 colon, with HOP-92 NSCLC, in the assay on 786-0 renal, with U251 CNS and in the assay with COLO 205 colon was greater than 100 µM each time. The TGI in the assay with HCT-116 colon, in the assay with M14 melanoma and in the assay with UO-31 renal was greater than 100 µM throughout.
With `O=C1Nc2ccccc2/C1=C\c1c(Cl)n(-c2ccccc2)c2ccccc12`, the TGI in the assay on UACC-62 melanoma is 66.7 µM; in the assay on SW-620 colon, greater than 100 µM; in the assay with HOP-92 NSCLC, 7.63 µM; in the assay with 786-0 renal it was 7.71 µM; in the assay on U251 CNS it was 18.2 µM; in the assay with COLO 205 colon it was 4.13 µM. Moreover, the results for the TGI in the assay on HCT-116 colon, with M14 melanoma and in the assay on UO-31 renal were 6.26 µM, 10.1 µM and 16 µM, respectively.
With `O=C(O)CSC(CC(=O)c1ccc(Cl)cc1)c1ccc(Cl)cc1` (stereo not drawn), the total growth inhibition concentration (TGI) in the assay with UACC-62 melanoma was greater than 100 µM; in the assay with SW-620 colon, greater than 100 µM; in the assay with HOP-92 NSCLC it was 73.2 µM; in the assay on 786-0 renal, greater than 100 µM; in the assay on U251 CNS, greater than 100 µM; in the assay with COLO 205 colon, greater than 100 µM. The TGI is 59.7 µM with HCT-116 colon, greater than 100 µM with M14 melanoma and greater than 100 µM in the assay on UO-31 renal.
`C[n+]1cccc2ccc3cccnc3c21`: the TGI is greater than 100 µM in the assay on UACC-62 melanoma; greater than 100 µM in the assay on SW-620 colon; greater than 100 µM in the assay with HOP-92 NSCLC; greater than 100 µM in the assay with 786-0 renal; greater than 100 µM with U251 CNS; 70 µM in the assay on COLO 205 colon. Further, the TGI in the assay on HCT-116 colon, with M14 melanoma and with UO-31 renal was greater than 100 µM throughout.
`Nc1[nH]c(=O)nc2c1ncn2C1OC(CO)C(O)C1O` (stereo not drawn): the TGI in the assay on UACC-62 melanoma, in the assay on SW-620 colon, with HOP-92 NSCLC, in the assay on 786-0 renal, in the assay with U251 CNS and in the assay on COLO 205 colon was greater than 100 µM each time. Also, the total growth inhibition concentration (TGI) with HCT-116 colon, in the assay with M14 melanoma and in the assay with UO-31 renal was greater than 100 µM throughout.
With `COc1cc2c[n+]3c4c(c2c(OC)c1OC)CCCC4CC3` (stereo not drawn), the concentration for total growth inhibition (TGI) in the assay with UACC-62 melanoma, in the assay with SW-620 colon, with HOP-92 NSCLC, with 786-0 renal, in the assay on U251 CNS and in the assay on COLO 205 colon was greater than 100 µM each time. The TGI in the assay on HCT-116 colon, with M14 melanoma and in the assay with UO-31 renal was greater than 100 µM throughout.
As to `Cc1cn(CCCCCCOC(=O)NC(CCCNC(N)=O)C(=O)O)c(=O)[nH]c1=O` (stereo not drawn), the TGI in the assay on UACC-62 melanoma, with SW-620 colon, in the assay on HOP-92 NSCLC, with 786-0 renal, in the assay on U251 CNS and with COLO 205 colon was greater than 100 µM each time. The TGI with HCT-116 colon, in the assay on M14 melanoma and in the assay with UO-31 renal was greater than 100 µM throughout.
For `CCN(CC)C(=S)SC(C(=O)Nc1nnc(-c2ccc(Cl)cc2)o1)c1ccccc1` (stereo not drawn), the TGI in the assay on UACC-62 melanoma was determined as 23.6 µM; with SW-620 colon, 35.9 µM; in the assay with HOP-92 NSCLC it was 51.5 µM; with 786-0 renal, 39 µM; in the assay on U251 CNS, 65.3 µM; in the assay on COLO 205 colon, 14.5 µM. Moreover, the concentration for total growth inhibition (TGI) in the assay with HCT-116 colon worked out at 13.5 µM; in the assay with M14 melanoma it was 27.6 µM; in the assay on UO-31 renal, 52.1 µM.
